The target of one data set is CYP450 2C9 (Homo sapiens, UniProt P11712). In words: Cytochrome P450 inhibition, CYP2C9 (Eurofins Panlabs panel). Format: in vitro ADME. The note with it: assayed at 10 μM. As for the experimental part:
(§1) Cytochrome P450 Inhibition.
(§2) Assessment of off-target effects of priority compounds. To assess potential off-target effects, we will evaluate prioritized hits validated by in vivo testing in the Eurofins Panlabs HitProfilingScreen+CYP450 assay panel, which is performed by Eurofins as a fee for service. The assay panel of consists of assays for 30 receptors and transporters plus the five major CYP450 enzymes (1A2, 2C19, 2C9, 2D6, 3A4).

A short description of data set [1]: Mammalian cytotoxicity (CC50), MTS conversion. The note with it: human, HeLa cells, Table 1; HeLa; read-out: Cytotox-HeLa CC50. Format: cell-based, human. The protocol: Determination of Mammalian Cytotoxicity.
Following incubation for 3 days at 37° C. in VP-SFM, cell viability was measured with the vital tetrazolium salt stain 3-(4,5-dimethylthiazol-2-yl)-2,5 diphenyltetrazolium bromide according to the manufacturer's instructions (Promega, Madison, Wisconsin). Values were determined in triplicate using dilutions of inhibitory compound from 100 μM to 0.2 μM.

A further data set has as its target CYP450 3A4 (Homo sapiens, UniProt P08684). In words: Cytochrome P450 inhibition, CYP3A4 (Eurofins Panlabs panel). Format: in vitro ADME. The note with it: assayed at 10 μM. The protocol: as §1, §2
In another data set the target is hERG (Homo sapiens, UniProt Q12809). In words: hERG inhibition. (In general: Block of hERG is tested as a sign of cardiac risk.)
Sequence of hERG (Q12809 whole entry): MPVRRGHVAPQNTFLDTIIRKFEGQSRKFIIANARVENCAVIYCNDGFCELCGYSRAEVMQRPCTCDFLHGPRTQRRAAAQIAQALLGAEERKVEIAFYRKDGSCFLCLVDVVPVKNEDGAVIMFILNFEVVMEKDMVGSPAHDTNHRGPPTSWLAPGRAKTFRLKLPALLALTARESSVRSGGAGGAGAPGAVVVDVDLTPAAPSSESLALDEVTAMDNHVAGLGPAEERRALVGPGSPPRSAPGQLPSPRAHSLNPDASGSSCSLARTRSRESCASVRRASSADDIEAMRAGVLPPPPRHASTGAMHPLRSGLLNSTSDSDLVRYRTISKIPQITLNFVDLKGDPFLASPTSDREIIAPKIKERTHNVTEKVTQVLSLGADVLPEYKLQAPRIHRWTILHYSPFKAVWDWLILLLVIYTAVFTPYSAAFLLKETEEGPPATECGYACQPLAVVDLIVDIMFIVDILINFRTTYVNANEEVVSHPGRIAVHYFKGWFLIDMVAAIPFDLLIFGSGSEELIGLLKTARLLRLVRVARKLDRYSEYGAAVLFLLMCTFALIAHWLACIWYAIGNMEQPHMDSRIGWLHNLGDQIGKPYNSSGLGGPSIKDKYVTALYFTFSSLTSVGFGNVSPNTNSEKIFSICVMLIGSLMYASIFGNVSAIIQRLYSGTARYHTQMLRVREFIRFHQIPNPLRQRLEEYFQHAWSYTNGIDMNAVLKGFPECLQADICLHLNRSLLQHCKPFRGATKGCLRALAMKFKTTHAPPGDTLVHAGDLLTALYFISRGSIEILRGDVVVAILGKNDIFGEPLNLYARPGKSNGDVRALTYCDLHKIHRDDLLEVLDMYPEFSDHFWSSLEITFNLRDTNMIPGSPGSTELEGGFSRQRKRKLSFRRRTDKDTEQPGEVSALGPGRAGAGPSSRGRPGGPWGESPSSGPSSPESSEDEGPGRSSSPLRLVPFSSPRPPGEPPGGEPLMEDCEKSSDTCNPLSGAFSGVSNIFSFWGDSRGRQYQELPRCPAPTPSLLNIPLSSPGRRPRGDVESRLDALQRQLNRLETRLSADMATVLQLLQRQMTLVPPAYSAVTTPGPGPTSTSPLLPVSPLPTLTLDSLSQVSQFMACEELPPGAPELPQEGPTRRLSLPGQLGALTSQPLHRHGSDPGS
Data set [2] can be described thus: Kinetic aqueous solubility (nephelometric assay). Format: physicochemical. The note with it: Table 1. An excerpt: Solubility. The maximum aqueous solubility of analogs will be initially determined by nephelometry using a published method (44).
Data set [3] concerns P. aeruginosa T3SS-mediated secretion (exoT-luxCDABE reporter strain MDM852). Put plainly: Luciferase (exoT-lux) transcriptional reporter assay of T3SS-mediated secretion. The data set is classed as cell-based, Pseudomonas aeruginosa. The note with it: read-out: LUX Sec IC50; Table 1. The text has this: Luciferase Transcriptional Reporter Assay of T3SS-Mediated Secretion with a Luminescent Signal.
A transcriptional fusion of the Photorhabdus luminescens lux operon (luxCDABE) to P. aeruginosa PAO1 T3SS effector gene exoT (PA0044) was constructed and used to build strain MDM852 as described previously (Aiello et al., 2010, Antimicrob Agents Chemother, 54:1988-1999). Induction of T3SS operons by Ca^++ depletion due to EGTA addition results in secretion of the T3SS negative regulator ExsE and the production of high levels of T3SS components including the luxCDABE gene products, which results in luminescence that is easily detected by a microplate reader. Inhibition of T3SS-mediated secretion of the negative regulator ExsE by a small molecule inhibitor causes reduced production of luxCDABE gene products and reduced luminescence. For inhibitor IC50 testing, compounds were added to a 96-well microplate in a concentration dilution series. Reporter strain MDM852 was grown at 37° C. in LBG to OD600 ~0.025-0.05, transferred into the microplate (50 uL/well) containing test compounds and EGTA (5 uL of 0.1 M stock solution), which was covered with a translucent gas-permeable seal (Abgene, Inc., Cat. No. AB-0718). […] Plates were incubated at room temperature for 300 min. Then, luminescence was measured in an Envision Multilabel microplate reader (PerkinElmer). The screening window coefficient, Z′-factor (see Zhang, et al., 1999, J. Biomol. Screen., 4:67-73), defined as the ratio of the positive and negative control separation band to the signal dynamic range of the assay, averaged 0.7 for the assay.
On the technique in general: In a reporter assay the amount or activity of a reporter protein is the signal.

Another data set concerns the target CYP450 2D6 (Homo sapiens, UniProt P10635). In words: Cytochrome P450 inhibition, CYP2D6 (Eurofins Panlabs panel). The data set is classed as in vitro ADME. The note with it: assayed at 10 μM. As for the experimental part: as §1, §2
In a further data set the target is CYP450 2C19 (Homo sapiens, UniProt P33261). In words: Cytochrome P450 inhibition, CYP2C19 (Eurofins Panlabs panel). Format: in vitro ADME. The note with it: assayed at 10 μM. As for the experimental part: as §1, §2
Sequence of CYP450 2C19 (P33261 whole entry): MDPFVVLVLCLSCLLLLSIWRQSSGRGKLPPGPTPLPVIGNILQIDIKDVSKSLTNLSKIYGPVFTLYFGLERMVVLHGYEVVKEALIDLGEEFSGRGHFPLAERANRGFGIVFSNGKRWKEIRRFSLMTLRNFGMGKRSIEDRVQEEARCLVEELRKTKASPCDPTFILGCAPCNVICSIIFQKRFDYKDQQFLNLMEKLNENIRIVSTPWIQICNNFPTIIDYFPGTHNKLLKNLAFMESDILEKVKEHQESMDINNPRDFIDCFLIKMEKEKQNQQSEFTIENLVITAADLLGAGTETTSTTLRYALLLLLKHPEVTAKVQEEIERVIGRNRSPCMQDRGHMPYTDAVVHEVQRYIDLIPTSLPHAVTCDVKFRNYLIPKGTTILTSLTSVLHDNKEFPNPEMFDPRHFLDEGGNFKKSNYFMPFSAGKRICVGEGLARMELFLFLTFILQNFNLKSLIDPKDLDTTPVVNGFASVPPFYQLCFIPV
For data set [4], the system named is panel of human cytochrome P450s (1A2, 2C19, 2C9, 2D6, 3A4), receptors, transporters and ion channels. Put plainly: in vitro.
A further data set deals with CYP450 1A2 (Homo sapiens, UniProt P05177). In words: Cytochrome P450 inhibition, CYP1A2 (Eurofins Panlabs panel). The data set is classed as in vitro ADME. The note with it: assayed at 10 μM. As for the experimental part:
as §1, §2

Where only a bound is given, the exact number is not on record here.

Sequence of CYP450 3A4 (P08684 whole entry): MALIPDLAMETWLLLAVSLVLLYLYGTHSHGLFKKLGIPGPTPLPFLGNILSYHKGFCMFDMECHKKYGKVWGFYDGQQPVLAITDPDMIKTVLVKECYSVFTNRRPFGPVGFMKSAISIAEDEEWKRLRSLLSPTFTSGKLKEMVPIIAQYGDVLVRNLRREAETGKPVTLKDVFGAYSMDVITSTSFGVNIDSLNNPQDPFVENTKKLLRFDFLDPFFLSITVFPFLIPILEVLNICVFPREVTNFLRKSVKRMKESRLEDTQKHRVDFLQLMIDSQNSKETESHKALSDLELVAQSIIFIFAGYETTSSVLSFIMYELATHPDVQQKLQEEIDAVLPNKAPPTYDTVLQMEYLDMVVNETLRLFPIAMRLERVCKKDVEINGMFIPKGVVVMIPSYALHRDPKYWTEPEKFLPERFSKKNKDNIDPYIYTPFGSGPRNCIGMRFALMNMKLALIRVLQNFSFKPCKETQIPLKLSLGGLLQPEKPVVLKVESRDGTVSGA
Sequence of CYP450 2D6 (P10635 whole entry): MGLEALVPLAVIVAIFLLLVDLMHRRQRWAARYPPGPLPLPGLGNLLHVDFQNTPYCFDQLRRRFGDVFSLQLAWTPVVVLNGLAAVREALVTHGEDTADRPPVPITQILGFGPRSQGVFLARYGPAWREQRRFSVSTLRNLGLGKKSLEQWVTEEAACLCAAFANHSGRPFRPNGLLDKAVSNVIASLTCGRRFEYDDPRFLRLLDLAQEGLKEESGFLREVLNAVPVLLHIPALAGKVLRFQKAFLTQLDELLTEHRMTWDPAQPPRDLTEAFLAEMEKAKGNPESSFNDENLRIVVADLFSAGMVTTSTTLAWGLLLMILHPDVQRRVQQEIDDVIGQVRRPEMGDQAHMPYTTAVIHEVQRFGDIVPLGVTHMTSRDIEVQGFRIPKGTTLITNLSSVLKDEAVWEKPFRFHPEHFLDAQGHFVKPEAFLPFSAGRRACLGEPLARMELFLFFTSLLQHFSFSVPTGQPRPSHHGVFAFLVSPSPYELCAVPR
Sequence of CYP450 2C9 (P11712 whole entry): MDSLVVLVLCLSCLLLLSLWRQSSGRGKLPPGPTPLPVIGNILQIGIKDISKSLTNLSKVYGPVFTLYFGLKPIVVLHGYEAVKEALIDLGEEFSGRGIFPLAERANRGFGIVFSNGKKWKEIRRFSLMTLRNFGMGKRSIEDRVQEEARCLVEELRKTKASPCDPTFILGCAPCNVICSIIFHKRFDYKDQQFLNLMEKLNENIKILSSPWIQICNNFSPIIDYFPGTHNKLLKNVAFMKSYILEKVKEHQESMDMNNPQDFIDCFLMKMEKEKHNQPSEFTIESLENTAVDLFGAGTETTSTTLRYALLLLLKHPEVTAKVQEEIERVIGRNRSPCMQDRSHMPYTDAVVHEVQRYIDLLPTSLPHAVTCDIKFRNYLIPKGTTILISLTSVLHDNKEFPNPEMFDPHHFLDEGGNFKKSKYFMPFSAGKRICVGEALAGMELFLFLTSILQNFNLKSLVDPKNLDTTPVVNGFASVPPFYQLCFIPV
Sequence of CYP450 1A2 (P05177 whole entry): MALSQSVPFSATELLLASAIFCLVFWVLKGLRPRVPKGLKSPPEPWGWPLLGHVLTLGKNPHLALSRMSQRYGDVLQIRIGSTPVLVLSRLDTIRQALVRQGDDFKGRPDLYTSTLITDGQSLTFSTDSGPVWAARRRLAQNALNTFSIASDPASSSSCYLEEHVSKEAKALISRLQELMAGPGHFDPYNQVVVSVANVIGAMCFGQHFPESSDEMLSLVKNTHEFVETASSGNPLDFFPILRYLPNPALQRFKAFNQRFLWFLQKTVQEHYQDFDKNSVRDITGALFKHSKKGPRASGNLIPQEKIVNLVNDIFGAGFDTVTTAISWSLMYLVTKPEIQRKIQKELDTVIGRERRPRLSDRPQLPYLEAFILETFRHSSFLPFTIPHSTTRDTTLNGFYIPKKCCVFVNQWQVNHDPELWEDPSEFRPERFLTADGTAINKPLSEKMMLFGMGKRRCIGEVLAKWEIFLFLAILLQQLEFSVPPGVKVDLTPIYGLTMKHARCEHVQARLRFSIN

As usually defined, the CC50 is the concentration giving 50% cytotoxicity. As a reminder, the IC50 is the midpoint of a concentration-inhibition curve. What is called inhibition is the share of the control response that was lost under treatment. A low value points to a weak effect. As for `CCC(Oc1ccc(Cl)c(Cl)c1Cl)C(=O)NCc1ccc(F)cc1` (centres unmarked) [MBX-4532], the “CYP450, 2C9” value on CYP450 2C9 is on record as −30. Also, the CC50 at 3 days in data set [1] was more than 200 µM. For the same molecule, on CYP450 3A4, the “CYP450, 3A4” value is on record as 13. Besides, the concentration for half-maximal inhibition (IC50) was more than 100 µM on hERG (Table 1, read-out: hERG INH IC50) and 1.63 µM in data set [3]. In addition, the “Potassium Channel hERG” value on hERG (assayed at 10 μM) is 26. Further, the Sol in [2] was 25 µM. Besides, the “CYP450, 2D6” value on CYP450 2D6 stood at 0. The “CYP450, 2C19” value at CYP450 2C19 is reported as 80. Also, the inhibition at 10 µM in data set [4] is more than 50%. In addition, the “CYP450, 1A2” value at CYP450 1A2 came out at 24.

Source of the values: US20260248774A1, “INHIBITORS OF BACTERIAL TYPE III SECRETION SYSTEM” (MICROBIOTIX, INC., priority 2022, published 2026).
